According to patent US7169290B1, “Biosensor for metal analysis and speciation” (Battelle Energy Alliance, LLC, priority 2002, dated 2007):

Tests used:
Format in all cases: biochemical
[1] = target: T1, purified A. niger NR (E.C. 1.6.6.2) (Aspergillus niger, UniProt P36858); test: Metal inhibition of NR activity, colorimetric nitrite production (Griess reaction), MOPS buffer; settings: for enzyme inhibition: 1 μM metal ion; for enzyme inhibition / span of concentrations over which NR activity is inhibited: MOPS buffer; for span of concentrations over which NR activity is inhibited: no chelating agent
T1 construct: purchased Sigma-Aldrich Co. (St. Louis, Mo.)
T1 sequence (P36858 1-867): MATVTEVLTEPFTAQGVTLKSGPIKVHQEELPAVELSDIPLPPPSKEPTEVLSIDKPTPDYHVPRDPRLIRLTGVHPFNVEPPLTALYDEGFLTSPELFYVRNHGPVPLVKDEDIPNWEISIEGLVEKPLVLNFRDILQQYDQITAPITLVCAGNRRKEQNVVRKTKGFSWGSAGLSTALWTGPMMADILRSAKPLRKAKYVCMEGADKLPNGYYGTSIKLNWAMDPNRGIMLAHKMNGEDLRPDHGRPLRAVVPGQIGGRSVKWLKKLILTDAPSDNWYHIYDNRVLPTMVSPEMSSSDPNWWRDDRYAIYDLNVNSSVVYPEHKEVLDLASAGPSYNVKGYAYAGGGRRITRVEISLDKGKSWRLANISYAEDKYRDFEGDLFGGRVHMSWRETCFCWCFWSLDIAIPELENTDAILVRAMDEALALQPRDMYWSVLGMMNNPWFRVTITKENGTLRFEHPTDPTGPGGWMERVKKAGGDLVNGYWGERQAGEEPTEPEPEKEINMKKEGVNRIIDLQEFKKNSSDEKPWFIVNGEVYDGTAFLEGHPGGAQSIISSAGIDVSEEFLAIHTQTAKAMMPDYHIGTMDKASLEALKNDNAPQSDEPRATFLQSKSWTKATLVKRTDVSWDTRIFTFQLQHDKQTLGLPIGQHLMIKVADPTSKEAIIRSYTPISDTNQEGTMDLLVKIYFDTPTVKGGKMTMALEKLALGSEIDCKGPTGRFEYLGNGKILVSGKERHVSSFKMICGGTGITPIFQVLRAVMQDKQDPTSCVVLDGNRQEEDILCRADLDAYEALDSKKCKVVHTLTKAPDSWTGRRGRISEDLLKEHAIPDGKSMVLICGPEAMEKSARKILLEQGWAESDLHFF
Experimental: NR activity was measured using the Griess reaction in which nitrite is colorimetrically determined by diazotization and diazomium coupling reactions of nitrite with sulfanilamide and N-(1-naphthyl)ethylenediamine. Measurements were conducted in 96-well microtiter plates, allowing multiple reactions to be quantified simultaneously. The assay followed the method as described in R. Kneer et al., Phytochemistry, 31:2663–2667 (1992), with modifications including the adaptation for use in a 96-well plate format, the reduction of the assay time to 5 minutes, and the substitution of a 12.5 mM MOPS buffer instead of the 33 mM TRIS buffer used.
This was followed by the addition of 40 μl 0.2% (wt.) N-(1-naphthyl)ethylenediamine. The absorbance of the resulting pink solution read at 540 nm was recorded after ten minutes using a microplate reader (HTS7000 Plus Bioassay Reader, Perkin Elmer, Conn.).
Negative controls containing all reagents except NR were run and analyzed for nitrite. An activity of 100% indicated the rate of nitrate conversion in the absence of Cr(III). Positive controls, which comprised no metal but comprised all other reagents, were also run. Additional controls comprising nitrite, NR and NADPH were run to rule out the possibility that NR reduced the nitrite.
NR activity is reported as a percentage of the experimentally measured activity of the positive (metal-free) control or as a ratio of the change in absorbance of a metal-containing sample to the change in absorbance of a positive (metal-free) control. An activity of 100% indicated the rate of nitrate conversion in the absence of the metal. Data points represent the averages of seven replicate experiments and error bars represent the standard deviation of those averages, unless otherwise stated.
NR, NADPH, and KNO3 were used in the same concentrations as in the metal-free NR and buffer evaluation assays. For metal-inhibition studies in the absence of a chelating agent, the appropriate concentration of metal stock solution was added to the NR and KNO3 solution. The mixture was allowed to incubate at 25° C. for five minutes prior to the addition of NADPH to allow adequate time for the metal and NR to interact. A 12.5 mM MOPS buffer solution was used to maintain the pH at 7.5. Final metal concentrations in the assay solution ranged from 0.01 μM to 1000 μM. Enzyme activity was determined as described above by the calorimetric quantification of nitrite production and reported as a percentage of the nitrite produced in a metal-free control.
The sensitivity of NR to Cr(III) was determined at concentrations ranging from 1 to 10 μM. […] To further determine the extent to which NR was sensitive to metals in aqueous samples, the activity of purified NR was evaluated in the presence of Cd^2+, Cu^2+, Cr^3+, Cr^6+, Ni^2+, Pb^2+, and Zn^2+ ions at concentrations ranging from 0.01 to 1000 μM.

[2] = target: T1, purified A. niger NR (E.C. 1.6.6.2); test: Regeneration of metal inactivated NR activity by 10 mM EDTA; settings: for NR activity after EDTA treatment, % of control: 100 μM metal five minutes, then 10 mM EDTA; for restoration of NR activity by EDTA after metal exposure / NR activity before EDTA treatment, % of control: 100 μM metal; for restoration of NR activity by EDTA after metal exposure: 10 mM EDTA; for NR activity before EDTA treatment, % of control: five minutes, 25° C., 10 mM KNO3
Experimental: To determine whether inhibition caused by exposure to the metals could be reversed by the addition of EDTA, NR was exposed to 100 μM of the following metals: Cd^2+, Cr^3+, Cu^2+, Pb^2+ and Zn^2+ for five minutes in a 96-well plate and incubated at 25° C. with 10 mM KNO3. After five minutes, 10 mM EDTA was added and solutions were shaken for 10 seconds. NADPH was added to sets of positive controls, negative controls, and metal/NR and EDTA for evaluation of NR activity both immediately after EDTA addition and 30 minutes after EDTA addition. Enzyme activity was measured by determining the amount of nitrite produced and reported as a percent of a positive control.

[3] = target: T1, purified A. niger NR (E.C. 1.6.6.2); test: Evaluation of buffer-metal interactions, NR activity by rate of NADPH disappearance; settings: 5 μM metal; for NR sensitivity to metal in TRIS buffered system: 30 mM TRIS buffer pH 7.5; for NR sensitivity to metal in phosphate buffered system: 30 mM phosphate buffer pH 7.5
Experimental: To determine the buffer that would provide minimal metal-buffer complexation and, therefore, allow maximal metal inhibition to NR activity, an analysis of various pH buffers was performed. HEPES, MOPS, PIPES, phosphate, and TRIS buffers were individually evaluated in the presence of NR and 5 μM of each of the following metals: Cr^3+, Cr^6+, Cd^2+, Cu^2+, Pb^2+, and Zn^2+. An unbuffered assay system was used to establish a baseline of metal-induced enzyme inhibition. Reagents were added in the following order: the metal stock solution, the buffer solution, KNO3 solution, NR, and NADPH.
For these buffer experiments, NR and NADPH solutions were prepared in water rather than in the 30 mM MOPS, as was done for all other experiments. The final concentration of all reagents was 30 mM of each respective buffer, 5 μM metal, 50 μg ml^−1 NR, 10 mM KNO3 and 0.1 mM NADPH. NADPH addition initiated the reaction but NR activity was determined following the method described in Gilliam et al., Anal. Biochem., 212:359–365 (1993), which is based on the rate of NADPH disappearance. The presence of NADPH, which has a peak absorbance at 340 nm, was monitored with respect to time for 3 minutes using a Hewlett Packard 8452A UV-Vis spectrophotometer. NR activity was then reported as a ratio of the change in absorbance of a metal-containing sample to the change in absorbance of a positive (metal-free) control. The inherent instability of NADPH and the potential for oxidation in the presence of the metals used in these experiments was accounted for in negative controls, which contained all reagents but NR.
To select a buffering system that allowed for maximum inhibition of the enzyme by metal ions, several common buffers, HEPES, MOPS, PIPES, Phosphate and TRIS were tested in metal inhibition assays. The buffers used in the assay affected the sensitivity of NR to the metal ions examined due to some of the buffers' ability to chelate metal ions, as shown in FIG. 1. NR activity is reported as the percent of a metal free control. Values represent the averages of five replicate experiments. NR activity assays were also run in an unbuffered water system to establish a baseline level of metal sensitivity and to determine if the buffers were shielding NR from inhibition by any of the metals that were examined. An unbuffered assay system was not selected for further experiments because the pH was not uniformly maintained for the various conditions under which NR activity would be measured. […] Therefore, MOPS was chosen for use in subsequent metal inhibition assays over a wider range of metal concentrations. The phosphate and TRIS buffers appeared to selectively protect NR against different metals. […] The opposite was found when the assay was conducted in a TRIS buffered system where NR was insensitive to Cu^2+ ions and was inhibited by Cd^2+, Cr^6+, Pb^2+, and Zn^2+.

[4] = target: T1, purified A. niger NR (E.C. 1.6.6.2); test: EDTA and NTA chelation experiments, NR activity by nitrite production; settings: for effect of EDTA on the metal's ability to inhibit NR: EDTA 0.1 to 10 mM
Experimental: To determine the ability of chelating agents to prevent NR inhibition, EDTA or NTA was added to the enzymatic assay. For the experiments in which either EDTA or NTA was used, the reagents were added in the following order: the appropriate metal solution, EDTA or NTA, NR, nitrate, and finally NADPH. To allow sufficient time for the metal and chelating agent to react, the metal and either EDTA or NTA were added together prior to the addition of NR. Final assay metal ion concentrations ranged from 0.01 to 1000 μM. EDTA and NTA had final concentrations of 0.1 mM, 1 mM and 10 mM. Final concentrations of NR, KNO3 and NADPH were as described above. NR activity was assayed by monitoring the production of nitrite, as described above.

[5] = 12.5 mM MOPS pH 7.5, no chelating agent

| SMILES | enzyme inhibition [1] | metal concentration at which NR activity was substantially inhibited [1, 5] | metal concentration at which NR activity was substantially inhibited ([1]; 12.5 mM MOPS pH 7.5, no chelating agent, listed as Cr^6+) | span of concentrations over which NR activity is inhibited [1] | NR activity after EDTA treatment, % of control [2] | restoration of NR activity by EDTA after metal exposure [2] | NR activity before EDTA treatment, % of control [2] | NR sensitivity to metal in TRIS buffered system [3] | NR sensitivity to metal in phosphate buffered system [3] | effect of NTA on the inhibitory effects of the metal ([4]; 1 mM NTA) | increase of the concentration range over which the metal inhibited NR ([4]; 10 mM EDTA) | metal concentration up to which EDTA protected NR activity ([4]; 10 mM EDTA) | protection of NR by NTA from exposure to the metal ([4]; 10 mM NTA) | effect of EDTA on the metal's ability to inhibit NR ([4]; listed as Cr(VI)) | effect of EDTA on the metal's ability to inhibit NR ([4]; listed as Cr^6+) | NTA concentration up to which the metal's inhibitory effects on NR activity were not affected ([4]; NTA added to assay) | metal concentrations over which NTA protected NR from metal induced inhibition ([4]; 10 mM NTA) | NR activity retained, percent of original activity (metal free control) ([1]; 1000 μM metal ion, 12.5 mM MOPS pH 7.5) | metal concentration at which NR activity was inhibited / adversely affected [1, 5] |
| --- | --- | --- | --- | --- | --- | --- | --- | --- | --- | --- | --- | --- | --- | --- | --- | --- | --- | --- | --- |
| [Cr+3] [Cr^3+, chromium] | 62% | above 4 μM | 1 µM | several orders of magnitude | 4.3% ± 1.9% | unable to significantly restore | 5.7% ± 10% | inhibited | relatively insensitive | did not affect | two orders of magnitude | up to 100 μM | did not protect | unchanged | virtually unaffected | up to 10 mM |  |  |  |
| [Cu+2] [Cu^2+, copper] | 76% | 1 µM |  | several orders of magnitude | 5.1% ± 1.5% | unable to significantly restore | 1.0% ± 0.3% | insensitive | inhibited |  |  |  |  |  |  |  | up to 100 μM |  |  |
| [Zn+2] [Zn^2+, zinc] |  |  |  |  | 54% ± | partially restored | 6.6% ± | inhibited | relatively insensitive |  |  |  |  |  |  |  |  |  |  |
| [Ni+2] [Ni^2+, nickel] |  |  |  |  |  |  |  |  |  |  |  |  |  |  |  |  |  | ~20% | over 100 μM |
| [Cd+2] [Cd^2+, cadmium] |  |  |  |  | 28% ± | partially restored | 2.7% ± | inhibited | relatively insensitive |  |  |  |  |  |  |  |  |  |  |
| [Pb+2] [Pb^2+, lead] |  |  |  |  | 40% ± | partially restored | 1.3% ± | inhibited | relatively insensitive |  |  |  |  |  |  |  |  |  |  |
